Experimental data taken from ChEMBL document CHEMBL1275404, “Disulfide cyclized tripeptide analogues of angiotensin IV as potent and selective inhibitors of insulin-regulated aminopeptidase (IRAP)” (J Med Chem, 2010).

Target: Aminopeptidase N (Homo sapiens, UniProt P15144)
Experiment: Inhibition of catalytic activity of human recombinant aminopeptidase N expressed in HEK293 cells
Format: cell-based

Chain of Aminopeptidase N (P15144 whole entry): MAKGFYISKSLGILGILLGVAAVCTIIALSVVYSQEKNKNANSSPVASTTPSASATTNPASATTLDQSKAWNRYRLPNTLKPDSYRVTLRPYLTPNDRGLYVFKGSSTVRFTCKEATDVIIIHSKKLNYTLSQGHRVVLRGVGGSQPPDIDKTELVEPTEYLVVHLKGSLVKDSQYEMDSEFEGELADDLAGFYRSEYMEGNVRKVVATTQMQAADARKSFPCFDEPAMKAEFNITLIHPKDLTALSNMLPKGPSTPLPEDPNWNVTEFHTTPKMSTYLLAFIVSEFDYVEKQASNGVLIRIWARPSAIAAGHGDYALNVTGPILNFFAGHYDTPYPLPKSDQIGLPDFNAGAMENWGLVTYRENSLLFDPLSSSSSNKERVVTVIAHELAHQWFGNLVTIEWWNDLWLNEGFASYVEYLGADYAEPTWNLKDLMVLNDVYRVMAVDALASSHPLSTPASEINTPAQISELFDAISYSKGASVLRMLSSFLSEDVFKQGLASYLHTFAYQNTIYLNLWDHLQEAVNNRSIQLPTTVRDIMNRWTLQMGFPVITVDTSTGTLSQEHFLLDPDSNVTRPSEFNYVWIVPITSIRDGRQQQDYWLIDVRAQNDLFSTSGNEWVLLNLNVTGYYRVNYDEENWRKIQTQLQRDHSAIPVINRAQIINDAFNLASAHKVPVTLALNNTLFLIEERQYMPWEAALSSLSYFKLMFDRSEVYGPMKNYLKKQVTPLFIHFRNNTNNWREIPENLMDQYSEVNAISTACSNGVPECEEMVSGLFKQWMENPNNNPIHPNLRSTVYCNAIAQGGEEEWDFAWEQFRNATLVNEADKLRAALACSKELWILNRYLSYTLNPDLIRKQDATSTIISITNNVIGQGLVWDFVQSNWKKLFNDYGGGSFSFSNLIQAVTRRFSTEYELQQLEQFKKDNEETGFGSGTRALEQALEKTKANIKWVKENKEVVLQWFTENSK

Row | Ki [µM] | SMILES
1 | 7.25 | N[C@H]1CCSSC[C@@H](C(=O)NCc2ccccc2CC(=O)O)NC(=O)C[C@H](Cc2ccc(O)cc2)NC1=O
2 | 10.8 | N[C@H]1CCSSC[C@H](C(=O)NCc2ccccc2CC(=O)O)NC(=O)C[C@H](Cc2ccc(O)cc2)NC1=O
